# Data as given in patent publication EP4755396A1, “TREATMENT OF P53 GENE MUTATION OR DEFECT NEGATIVE CANCER AND TUMOR PATIENTS” (Ascentawits Pharmaceuticals, Ltd., priority 2023, dated 2025).
# Where two headings read alike, the source gives them in different places.
# How the values were obtained:
# [1] = system: H460 cells; assay: In vitro cell proliferation inhibition under normoxia (96-well, CTG, 72 hours); format: cell-based, human; details: for inhibition at 0.25 µM / inhibition at 0.5 µM / inhibition at 1 µM / IC50: Homo sapiens, 72 hours; for inhibition at 0.25 µM / inhibition at 0.5 µM / inhibition at 1 µM: NCI-H460; for inhibition at 0.25 µM: Nutlin-3 0.25 µM; for inhibition at 0.5 µM: Nutlin-3 0.5 µM; for inhibition at 1 µM: Nutlin-3 1 µM; for IC50: NCI-H460, 72 h
# Protocol: Overview of the experimental process • 1) H460 cell suspension was added to a 96-well plate at 100 µL per well, with a cell density of 2000 /well. • 2) The cells were cultured overnight in an incubator at 37°C, 5% CO2. • 3) Compound Treatment
# Monotherapy: After 24 hours of cell plating, each well was supplied with 99.5 µL of growth medium then added with 0.5µL of test compounds at different concentrations, shaken gently to ensure even mixing, and then placed at 37°C, 5% CO2 in an incubator.
# (§1) Combination therapy: After 24 hours of cell plating, each well was supplied with 99 µL of growth medium then added with 0.5µL of the combined action compound Nutlin-3, shaken gently to ensure even mixing, and then placed in an incubator for 2 hours. Then each well was added with 0.5µL of test compounds at different concentrations, shaken gently to ensure even mixing, and then placed at 37°C, 5% CO2 in an incubator.
# (§2) 4) The cell plate was placed in the incubator for 72 hours.
# (§3) 5) The cell plate to be tested was placed at room temperature to equilibrium for 30 minutes, and 100µL of medium was discarded per well.
# (§4) 6) 25µL of CTG reagent was added to each well, placed at a fast shaker to shake for 2 minutes, and placed at room temperature away from light for 30 minutes.
# (§5) 7) The chemiluminescence signal value was read using a multifunctional microplate reader with a reading time of 1000 ms.
# 8) IC50 was calculated with Graph Pad Prism 5 software.
# (§6) • 1) H460 and HPAF-II cell suspensions were added to a 96-well plate at 100 µL per well, with a cell density of 2000 /well and 20000/well, respectively. • 2) The cells were cultured overnight in an incubator at 37°C, 5% CO2. • 3) Compound Treatment
# (§7) Combination therapy: After 24 hours of cell plating, 99 µL of growth medium was supplied to each well. Each well was added with 0.5 µL of Nutlin-3 or RITA, shaken gently to ensure even mixing, and then placed in an incubator for 2 hours. Then each well was added with 0.5µL of test compounds at different concentrations, shaken gently to ensure even mixing, and then placed at 37°C, 5% CO2 in an incubator.
# (§8) Monotherapy: After 24 hours of cell plating, 99.5 µL of growth medium was supplied to each well. Then each well was added with 0.5µL of test compounds at different concentrations, shaken gently to ensure even mixing, and then placed at 37°C, 5% CO2 in an incubator.
# (§9) 7) The chemiluminescence signal value was read using a multifunctional microplate reader with a reading time of 1000 ms. The corresponding inhibition rate data were calculated.
# (§10) • 1) NCI-H460, NCI-H460 P53KO # 1 cell suspensions were added to a 96-well plate at 100 µL per well, with a cell density of 2000 /well. • 2) The cells were cultured overnight in an incubator at 37°C, 5% CO2. • 3) Compound Treatment
# as §1, with “plating,” for “plating, each well was supplied with”, “of” for “of growth”, “medium was supplied to each well. Each well was” for “medium then”, “of” for “of the”, “action compound,” for “action compound Nutlin-3,”
# (§11) 8) The ICso (half maximal inhibitory concentration) values were calculated using GraphPad Prism 5 software.
# [2] = system: HPAF-II cells; assay: In vitro cell proliferation inhibition (96-well, CTG, 72 hours); format: cell-based; details: Homo sapiens, HPAF-II cells, 72 hours; for inhibition at 7.5 µM: Nutlin-3 7.5 µM; for inhibition at 10 µM: Nutlin-3 10 µM; for inhibition at 15 µM: Nutlin-3 15 µM
# Protocol: as §6, §7, §8, §2, §3, §4, §9
# [3] = system: H460 cells; assay: Cell cycle G2/M arrest, PI staining flow cytometry; format: cell-based; details: for cell cycle (G0/G1, S, G2/M phases): first experiment, 0.1 nM AST-3424, 5 µM Nutlin-3, 24 hours, combination: AST-3424 first (Figure 5)
# Protocol: Overview of the experimental process: • 1) H460/HPAF-II cell suspensions were added to a 24-well plate, with a cell density of 100000 /well and 995 µL of medium per well. • 2) The cells were cultured overnight in an incubator at 37°C, 5% CO2. • 3) Compound Treatment
# 4) The cells were digested, centrifuged at 1000 g at 4°C, washed once with pre-cooled PBS, centrifuged at 1000 g at 4°C, and fixed with 1 mL of pre-cooled 70% ethanol at -20°C overnight.
# 5) The cells were centrifuged at 3000g at 4°C, washed once with pre-cooled PBS (phosphate buffer), centrifuged at 3000g at 4°C. Prepare PI staining solution. The cells were stained at 37°C away from light for 30 minutes, and stored in an ice bath away from light. Flow cytometric detection was performed on the same day, and the proportion of cells in different cell cycle phases was analyzed using FlowJo.
# [4] = system: H460 P53 KO #1; assay: In vitro cell proliferation inhibition under normoxia, p53 knockout cells; format: cell-based, human; details: Homo sapiens, NCI-H460, 72 h, 72 hours
# Protocol: (§12) The p53 CRISPR/Cas9 KO plasmid (human) and p53 HDR plasmid (human) were purchased from Santa Cruz Company to construct H460 P53 KO cell lines, namely p53 knockout (KnockOut) H460 cell lines. Three groups of H460 P53 KO cell lines were constructed with numbers of H460 P53 KO # 1, H460 P53 KO # 7, and H460 P53 KO # 12.
# (§13) After co-incubation for 15 minutes, they were added dropwise to the culture medium and mixed well.
# (§14) After 48 h, 2 µg/mL puromycin was added for screening.
# (§15) When the cell colonies grew to a sufficient size, single colonies were picked and cultured.
# (§16) When the cell number reached a sufficient quantity, samples were collected for WB identification of the colonies.
# (§17) H460 P53 KO cell lines, i.e. H460 P53 KO # 1, H460 P53 KO # 7, H460 P53 KO # 12 cell lines were used in experiments, respectively.
# as §10, §8
# as §1, with “plating,” for “plating, each well was supplied with”, “of” for “of growth”, “medium was supplied to each well. Each well was” for “medium then”, “of” for “of the”, “action compound,” for “action compound Nutlin-3,”
# as §2, §3, §4, §5, §11
# [5] = system: H460 P53 KO #12; assay: as above; format: cell-based, human; details: Homo sapiens, NCI-H460; H460 P53 KO # 12, normoxia, 72 hours; alone or with 3µM AST-3021 as labelled (Example 10)
# Protocol: as §12, §13, §14, §15, §16, §17
# [6] = system: H460 P53 KO #7; assay: as above; format: cell-based, human; details: Homo sapiens, NCI-H460; H460 P53 KO # 7, normoxia, 72 hours; alone or with 3µM AST-3021 as labelled (Example 10)
# Protocol: as §12, §13, §14, §15, §16, §17
structure (smiles),measurement,setting,value
COc1ccc(C2=NC(c3ccc(Cl)cc3)C(c3ccc(Cl)cc3)N2C(=O)N2CCNC(=O)C2)c(OC(C)C)c1 (racemic) [Nutlin-3],inhibition at 0.25 µM,"[1]; H460 cells, AST 0.5 nM, AST+Nutlin-3 0.5+0.25, read-out: Inhibition rate result, experimental group 1",11.8%
same,inhibition at 0.5 µM,"[1]; H460 cells, AST 0.5 nM, AST+Nutlin-3 0.5+0.5, read-out: Inhibition rate result, experimental group 2",17.3%
same,inhibition at 1 µM,"[1]; H460 cells, AST 0.5 nM, AST+Nutlin-3 0.5+1, read-out: Inhibition rate result, experimental group 3",18.3%
same,inhibition at 0.25 µM,"[1]; H460 cells, AST 1.5 nM, AST+Nutlin-3 1.5+0.25, read-out: Inhibition rate result, experimental group 4",11.8%
same,inhibition at 0.5 µM,"[1]; H460 cells, AST 1.5 nM, AST+Nutlin-3 1.5+0.5, read-out: Inhibition rate result, experimental group 5",17.3%
same,inhibition at 1 µM,"[1]; H460 cells, AST 1.5 nM, AST+Nutlin-3 1.5+1, read-out: Inhibition rate result, experimental group 6",18.3%
same,inhibition at 7.5 µM,"[2]; AST 20 nM, AST+Nutlin-3 20+7.5, read-out: Inhibition rate result, experimental group 1",8.54%
same,inhibition at 10 µM,"[2]; AST 20 nM, AST+Nutlin-3 20+10, read-out: Inhibition rate result, experimental group 2",52.5%
same,inhibition at 15 µM,"[2]; AST 20 nM, AST+Nutlin-3 20+15, read-out: Inhibition rate result, experimental group 3",73.9%
same,inhibition at 7.5 µM,"[2]; AST 60 nM, AST+Nutlin-3 60+7.5, read-out: Inhibition rate result, experimental group 4",8.54%
same,inhibition at 10 µM,"[2]; AST 60 nM, AST+Nutlin-3 60+10, read-out: Inhibition rate result, experimental group 5",52.5%
same,inhibition at 15 µM,"[2]; AST 60 nM, AST+Nutlin-3 60+15, read-out: Inhibition rate result, experimental group 6",73.9%
same,"cell cycle (G0/G1, S, G2/M phases)",[3],did not significantly alter the cell cycle
C[C@H](OP(=O)(N1CC1)N1CC1)c1ccc([N+](=O)[O-])c(Oc2cccc(C(=O)N(C)C)c2)c1 [AST-3424],proliferation inhibition rate of AST-3424,"[1]; H460 cells, Nutlin-3 added 2 hours in advance, followed by AST-3424, 72 hours (Figure 1)",increase significantly
same,IC50,"[1]; H460 WT, normoxia, alone or with 3µM AST-3021 as labelled (Example 10)",0.23 nM
same,IC50,"[1]; NCI-H460, normoxia, alone or with 3 µM AST-3021 as labelled (Example 13)",0.43 nM
same,IC50,"[4]; H460 P53 KO # 1, normoxia, alone or with 3µM AST-3021 as labelled (Example 10)",11.3 nM
same,IC50,"[4]; NCI-H460 P53KO # 1, normoxia, alone or with 3 µM AST-3021 as labelled (Example 13)",5.45 nM
same,IC50,[5],1.99 nM
same,IC50,[6],23.1 nM
same,"cell cycle (G0/G1, S, G2/M phases)",[3],did not significantly alter the cell cycle
same,G2/M cell cycle arrest,"[3]; second experiment, 0.03-1 nM AST-3424, 5 µM Nutlin-3, AST-3424 pre-treatment 2 hours (Figure 6)",concentration-dependent G2/M cell cycle arrest
